Reference: patent US9458187B2, “Methods for treatment of inflammatory conditions using S-[4-(3-fleuro-3-methylbutyryloxy)but-2-ynyl]6α, 9α-difluoro-17α-(furan-2-yl) carbonyloxy-11β-hydroxy-16α-methyl-3-oxoandrosta-1,4-diene-17β-carbothioate” (Sun Pharma Advanced Research Company Limited, priority 2013, dated 2016)

Tests used:
Progesterone receptor = molecular target: T1, Progesterone receptor (Homo sapiens, UniProt P06401); assay: Steroidal receptor binding screen, progesterone (human)
T1 construct: host or cells: insect Sf9
T1 sequence (P06401 1-933): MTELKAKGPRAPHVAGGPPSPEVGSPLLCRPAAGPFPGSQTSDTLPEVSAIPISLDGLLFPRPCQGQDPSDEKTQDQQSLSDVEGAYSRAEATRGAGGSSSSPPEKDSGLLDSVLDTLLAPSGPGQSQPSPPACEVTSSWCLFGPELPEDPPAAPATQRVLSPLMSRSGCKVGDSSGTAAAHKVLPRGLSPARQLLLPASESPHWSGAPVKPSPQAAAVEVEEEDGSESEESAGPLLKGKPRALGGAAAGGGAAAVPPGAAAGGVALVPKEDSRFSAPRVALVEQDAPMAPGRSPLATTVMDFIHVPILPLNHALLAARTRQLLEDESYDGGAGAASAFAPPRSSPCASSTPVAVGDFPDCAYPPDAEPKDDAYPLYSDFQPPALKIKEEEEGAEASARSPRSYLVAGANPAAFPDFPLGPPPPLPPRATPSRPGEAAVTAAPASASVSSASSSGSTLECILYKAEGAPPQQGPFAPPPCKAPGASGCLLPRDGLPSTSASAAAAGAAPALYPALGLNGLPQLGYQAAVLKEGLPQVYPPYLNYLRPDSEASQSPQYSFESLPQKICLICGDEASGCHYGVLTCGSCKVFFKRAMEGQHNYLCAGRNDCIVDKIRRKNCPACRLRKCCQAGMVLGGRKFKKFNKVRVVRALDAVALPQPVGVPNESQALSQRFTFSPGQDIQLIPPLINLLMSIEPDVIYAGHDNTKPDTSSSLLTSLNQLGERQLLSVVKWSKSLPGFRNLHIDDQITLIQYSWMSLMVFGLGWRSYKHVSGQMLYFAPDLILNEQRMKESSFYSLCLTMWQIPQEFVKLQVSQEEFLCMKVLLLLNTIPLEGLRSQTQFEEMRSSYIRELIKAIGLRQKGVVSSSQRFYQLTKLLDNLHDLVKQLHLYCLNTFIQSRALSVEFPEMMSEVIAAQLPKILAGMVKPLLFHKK
Text: For determination of binding to other related steroidal receptors by compound of the present invention cloned receptors from cells indicated in the parentheses were used: estrogen Erα/Erβ and progesterone (human recombinant insect Sf9), testosterone (human LnCAP) and aldosterone (Wistar rat kidney).

[1] = tested on: liver glycogen deposition; assay: Liver glycogen deposition; assay type: in vivo, Male Sprague Dawley rats; conditions: 3 mg/kg intratracheal, 2 doses 24 hrs apart, adrenalectomized rats
Protocol: Male Sprague Dawley rats, weighing 190-220 g were bilaterally adrenalectomized and maintained on 0.9% saline solution throughout the experiment. On day 5th and 6th of adrenalectomy, animals were made into different groups, test compounds prepared in cold saline (sonicated for 30 min) were instilled intratracheally 2 doses @3 mg/kg, 24 hrs apart. At 15 hrs after the last treatment, animals were sacrificed and livers were excised and weighed. The glycogen content of the livers was determined by anthrone method. Briefly, a weighed quantity of liver tissue was homogenized with 5% trichloroacetic acid, supernatant mixed with ethanol and kept overnight for precipitation. The glycogen thus extracted was estimated as glucose generated after acid hydrolysis by addition of anthrone reagent at 620 nm. Glycogen content was expressed as mg/100 g liver.

[2] = Sephadex-induced lung edema; assay type: in vivo, SD rats; conditions: Sprague-Dawley, rat, thymus, other: intratracheal; i.t., 24 hrs and 2 hrs prior to Sephadex; read-out: ED50 Thymus involution
Protocol: Sephadex® G-200 was prepared in sterile saline (10 mg/ml) and allowed to swell for at least 3 days at room temperature. Test compounds were administered intratracheally at 24 hrs and 2 hrs prior to intratracheal administration of Sephadex® (5 mg/kg) under light ether anesthesia. Vehicle control animals were administered vehicle instead of Sephadex®. At 24 hr after Sephadex® instillation, lung and thymus were excised from individual animals and weighed. Wet weights of lungs and thymus were corrected for 100 g of initial body weight. The percentage increase in lung weight caused by Sephadex® and its inhibitions by the compounds, were calculated. The percentage inhibitions of thymus compared to vehicle control group were also calculated

cotton pellet granuloma = assay: Cotton pellet granuloma test; assay type: in vivo, SD rats
Protocol: SD rats were used for assessing anti-inflammatory activity of test compound using cotton pellet granuloma method. Sterilized cotton pellets weighing 20 mg were prepared. Test compounds were dissolved in acetone so as to get the required quantity for each cotton pellet in 500 μl. Different pellets were impregnated with 500 μl of acetone to contain required quantity of test compounds and allowed to dry. Vehicle control pellets were impregnated with 500 μl acetone.
Rats were made into different groups. Two cotton pellets were surgically implanted into the scapular region of each rat. On sixth day of such implantation, pellets along with granuloma were taken out. Thymus gland was also separated from each animal and weighed. The pellets with granuloma were dried for 20 hrs at 60° C. and weighed. Mean weights of dry granuloma and thymus, body weight gain/100 g body weights were calculated.

[3] = Oral bioavailability and systemic plasma half-life; conditions: in vivo
[4] = tested on: Seasonal Allergic Rhinitis; assay: Efficacy and safety by intranasal administration, Seasonal Allergic Rhinitis Environmental Exposure Chamber study; assay type: in vivo, human; conditions: patients, intranasal 100, 200 or 400 μg BID, 2 weeks, versus placebo
Protocol: The present study was conducted to determine the efficacy and safety of the compound of the present invention via intranasal route in Seasonal Allergic Rhinitis model. This was a single-centered, randomized, double-blind, placebo-controlled parallel group study.
OBJECTIVE: The objective of the study was to assess the efficacy and safety of the compound of the present invention via intranasal route compared to placebo in alleviating the signs and symptoms of Seasonal Allergic Rhinitis in Environmental Exposure Chamber Model (EEC) after 2 weeks of treatment.
METHODS: In this study, male and female patients aged 18-65 years with history of seasonal allergic rhinitis and positive skin prick test to Dactylis glomerate within 12 months prior to screening and with TNSS score of >6 at least once during the 2 hour-screening EEC were included. Total 159 patients were included in the study and total 154 patients were considered for efficacy analysis. […]
Primary efficacy endpoint was change in TNSS (Total Nasal Symptom Score) in a 4-hour environmental challenge with Dactylis glomerate pollen in an EEC from baseline to Day 15/16. The TNSS was calculated as summation of 4 point severity scale (0=None, 1=Mild, 2=Moderate and 3=Severe) for each symptom (Nasal congestion, Rhinorrhea, Nasal itching and Sneezing). […]

C[C@@H]1CC2C3C[C@H](F)C4=CC(=O)C=C[C@]4(C)[C@@]3(F)[C@@H](O)C[C@]2(C)[C@@]1(OC(=O)c1ccco1)C(=O)SCC#CCOC(=O)CC(C)(C)F (stereo partly drawn) [Formula I, S-[4-(3-Fluoro-3-methylbutyryloxy)but-2-ynyl]6α,9α-difluoro-17α-(furan-2-yl)carbonyloxy-11β-hydroxy-16α-methyl-3-oxoandrosta-1,4-diene-17β-carbothioate]
IC50 (Progesterone receptor): 8.52 nM
Ki (Progesterone receptor): 3.29 nM
Glycogen content [1]: 10.68 mg/100 g liver
ED50 at 24 h [2]: 8.7 mg/kg
Mean % Inhibition of Granuloma A (cotton pellet granuloma; 100 mcg/pellet): 58.13%
Thymus wt. (% Decrease) B (cotton pellet granuloma; 100 mcg/pellet): 4.67%
thymus involution and body weight gain (systemic side effect markers) (cotton pellet granuloma; even at 100 mcg per pellet): insignificant
systemic plasma half-life [3]: short systemic plasma half-life
oral bioavailability ([3]; po): low oral bioavailability
primary and secondary efficacy endpoints (change in TNSS, TNSS subscales, nasal secretion) [4]: statistically superior to the placebo
safety profile (treatment-emergent adverse events) [4]: no significant difference in the safety profile
